IC50 data for 2 molecules are collected here from PMC8976068, “Structural basis to repurpose boron-based proteasome inhibitors Bortezomib and Ixazomib as β-lactamase inhibitors” (Scientific Reports, 2022).

Like-named read-outs stand apart in the source and are kept apart here.

Assay [1] has as its target T1, CTX-M-14 β-lactamase (Klebsiella pneumoniae, UniProt A0A2S1JJX2). The experiment in a line: crystal structure ([…] Å, soaking); also purified enzyme inhibition assay, cefotaxime hydrolysis. In kind it is biochemical.
Assay [2] deals with T1, CTX-M-14 β-lactamase. Described as above. In kind it is biochemical. The source holds these as a separate data set.

T1 sequence (A0A2S1JJX2 entry or part of it): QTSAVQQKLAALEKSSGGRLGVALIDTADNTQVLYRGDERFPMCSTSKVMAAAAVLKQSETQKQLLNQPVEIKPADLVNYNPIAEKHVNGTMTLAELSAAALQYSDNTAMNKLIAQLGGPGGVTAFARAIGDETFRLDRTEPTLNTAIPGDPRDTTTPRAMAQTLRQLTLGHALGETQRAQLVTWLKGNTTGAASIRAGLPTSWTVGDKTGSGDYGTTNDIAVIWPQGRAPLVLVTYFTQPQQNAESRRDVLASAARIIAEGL

The term IC50 denotes the concentration that gives 50% inhibition. On CTX-M-14 β-lactamase [1], `CC(C)C[C@H](NC(=O)[C@H](Cc1ccccc1)NC(=O)c1cnccn1)B(O)O` [Bortezomib] registered an IC50 of 67 ± 1.4 µM.
`CC(C)C[C@H](NC(=O)CNC(=O)c1cc(Cl)ccc1Cl)B(O)O` [Ixazomib] yielded a half-maximal inhibitory concentration (IC50) against CTX-M-14 β-lactamase [2] of 13 ± 1.2 µM.
